These results are taken from patent US20260297083A1, “SUBSTITUTED ACETYLENE COMPOUND DERIVATIVES AND THEIR PHARMACEUTICAL USE” (AVELOS THERAPEUTICS INC., priority 2023, published 2026).

In this test the target is T1, Polθ polymerase domain (amino acids 1792-2590) (Homo sapiens, UniProt O75417).
T1 construct: 10×Histidine-SUMO (N, cleaved yes); made in house; host or cells: E. coli
T1 sequence (O75417 1792-2590): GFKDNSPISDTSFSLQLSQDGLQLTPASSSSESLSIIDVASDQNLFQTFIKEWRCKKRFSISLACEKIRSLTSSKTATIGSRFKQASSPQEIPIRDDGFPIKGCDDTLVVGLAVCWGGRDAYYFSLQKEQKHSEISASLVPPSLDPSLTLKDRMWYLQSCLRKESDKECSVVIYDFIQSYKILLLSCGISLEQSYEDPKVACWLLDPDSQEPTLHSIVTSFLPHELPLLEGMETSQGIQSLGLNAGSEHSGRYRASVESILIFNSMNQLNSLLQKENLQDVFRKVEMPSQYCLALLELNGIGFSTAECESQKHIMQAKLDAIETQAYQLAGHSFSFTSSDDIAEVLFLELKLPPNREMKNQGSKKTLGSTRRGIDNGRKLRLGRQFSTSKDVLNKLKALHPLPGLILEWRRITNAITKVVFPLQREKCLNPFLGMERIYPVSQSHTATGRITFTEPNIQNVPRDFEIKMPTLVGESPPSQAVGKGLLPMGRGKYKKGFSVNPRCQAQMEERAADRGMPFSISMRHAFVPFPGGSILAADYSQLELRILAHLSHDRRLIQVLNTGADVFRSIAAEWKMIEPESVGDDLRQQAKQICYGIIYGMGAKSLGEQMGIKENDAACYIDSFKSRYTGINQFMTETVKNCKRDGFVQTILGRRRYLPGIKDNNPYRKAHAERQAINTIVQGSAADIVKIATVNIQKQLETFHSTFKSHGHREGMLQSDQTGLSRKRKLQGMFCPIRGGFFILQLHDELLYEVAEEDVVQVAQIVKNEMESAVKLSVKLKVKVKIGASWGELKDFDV
Put plainly: Picogreen assay of Polθ polymerase activity. Format: biochemical. Conditions: 12-point concentration response, 90 minutes incubation at room temperature, 8 nM Polθ in 2×polymerase mixture, read-out: PolQ IC50. From the text: The DNA sequence of the polQ gene (Genebank ID #NM 199420.4) was chemically synthesized. The DNA sequence encoding the polymerase domain (amino acids 1792-2590) was subcloned into an E. coli expression plasmid, resulting in the fusion of 10×Histidine-SUMO tag at the N terminus of the polymerase domain.
The protein was expressed in E. coli. and purified using a 2-step IMAC (immobilized metal chelate affinity chromatography) procedure. Briefly stated, the overexpressed E. coli lysate was subjected to Ni-NTA purification, and an N-terminal tag was digested by a SUMO protease. Then, the excised fragment of 10×Histidine-SUMO tag was removed using Ni-NTA beads. The resulting protein was used for the Picogreen assay, as described below.
The methods of DNA complex preparation were slightly modified from the protocol previously reported (Zatreanu et al., 2021, Nature Communications, 12:3636). Briefly stated, polθ substrate was prepared by mixing Oligo1 (5′-GCG GCT GTC ATA AG-3′) and Oligo2 (5′-GCTACATTGACAATGGCATCAAATCTCAGATTGCGTCTTATGACAGCCGCG-3′) in an annealing buffer (20 mM Tris-Cl, pH 7.5, 50 mM NaCl) to the final concentration of 22 uM and 20 uM, respectively. The Polθ product was prepared by mixing Oligo3 (5′-CGCGGCTGTCATAAGACGCAATCTGAGATTTGATGCCATTGTCAATGTAGC-3′) and Oligo2 (5′-GCTACATTGACAATGGCATCAAATCTCAGATTGCGTCTTATGACAGCCGCG-3′) to the final concentration of 20 uM. The polθ product was used for the top signal control in the Picogreen assay. Both substrate and product were heated to 95° C. […] and cooled slowly to room temperature.
To evaluate the ability of test compounds to inhibit the activity of polθ in vitro, a Picogreen assay was performed to measure polθ IC50 (nM).
The reactions were performed at room temperature in an assay buffer (25 mM Tris-HCl, pH 7.5, 12.5 mM NaCl, 0.5 mM MgCl2, 5% (v/v) glycerol, 0.01% (v/v) Triton X-100, 0.01% (w/v) Bovine serum albumin, 1 mM DTT). Thirty microliters of 2×polymerase mixture (8 nM Polθ enzyme in an assay buffer) were distributed to 96 well plates, test compounds were prepared by dilution in 100% DMSO to obtain the correct dose range for a 12-point concentration response and 1 μl was dispensed into each well, and then 30 microliters of 2×substrate mix (100 nM DNA and 40 uM dNTPs in an assay buffer) was added. After 90 minutes of incubation, the reaction was stopped and DNA was stained by adding 40 microliters of Picogreen solution (1:80 dilution of Picogreen, Invitrogen, Cat #P7581, 25 mM Tris-HCl, pH 7.5, 10 mM EDTA, pH 7.5).
The fluorescence intensity was measured at excitation/emission=485 nm/520 nm using an Ensight plate reader (Perkin Elmer). The data was analyzed by GraphPad Prism software (Version 8.4.3) to calculate IC50.
With `Cc1cc(C(F)(F)F)cc(N2[C@H](C(=O)N(CC#Cc3cc(N4CCOCC4)ncn3)c3ccc(F)c(C)c3)CCS2(=O)=O)n1` [compound 75], the IC50 fell in the range of 1 to 50 nM.
As to `Cc1cc(C(F)(F)F)cc(N2[C@H](C(=O)N(CC#Cc3cc(N4CCOCC4)nc(C(F)(F)F)n3)c3ccc(F)c(C)c3)CCS2(=O)=O)n1` [compound 76], the half-inhibitory concentration (IC50) is 51 to 100 nM.
Consider `Cc1cc(C(F)(F)F)cc(N2[C@H](C(=O)N(CC#Cc3cnc(N4CCOCC4)nc3)c3ccc(F)c(C)c3)CCS2(=O)=O)n1` [compound 77], for which the IC50 lay within 1 to 50 nM.
`Cc1cc(C(F)(F)F)cc(N2[C@H](C(=O)N(CC#Cc3cnc(C(N)=O)nc3)c3ccc(F)c(C)c3)CCS2(=O)=O)n1` [compound 78]: the concentration for half-maximal inhibition (IC50) was in the range of 1 to 50 nM.
Regarding `Cc1cc(C(F)(F)F)cc(N2[C@H](C(=O)N(CC#Cc3ncc(N4CCOCC4)cn3)c3ccc(F)c(C)c3)CCS2(=O)=O)n1` [compound 79], the IC50 is 1 to 50 nM.
`Cc1cc(C(F)(F)F)cc(N2[C@H](C(=O)N(CC#Cc3nccc(N4CCOCC4)n3)c3ccc(F)c(C)c3)CCS2(=O)=O)n1` [compound 80]: the IC50 fell in the range of 1 to 50 nM.
Under `Cc1cc(C(F)(F)F)cc(N2[C@H](C(=O)N(CC#Cc3ncc(C(N)=O)cn3)c3ccc(F)c(C)c3)CCS2(=O)=O)n1` [compound 81] stands above 101 nM; under `Cc1cc(C(F)(F)F)cc(N2[C@H](C(=O)N(CC#Cc3ncc(C(=O)N4CCOCC4)cn3)c3ccc(F)c(C)c3)CCS2(=O)=O)n1` [compound 82], 51 to 100 nM.
For `Cc1cc(C(F)(F)F)cc(N2[C@H](C(=O)N(CC#Cc3ncc(C(=O)N4C5CCC4COC5)cn3)c3ccc(F)c(C)c3)CCS2(=O)=O)n1` [compound 83], the 50% inhibitory concentration (IC50) lay in the range of 1 to 50 nM.
As to `Cc1cc(C(F)(F)F)cc(N2[C@H](C(=O)N(CC#Cc3ccc(N4CCOCC4)cn3)c3ccc(F)c(C)c3)CCS2(=O)=O)n1` [compound 84], the IC50 was 1 to 50 nM.
Take `Cc1cc(C(F)(F)F)cc(N2[C@H](C(=O)N(CC#Cc3ccc(N4CCOCC4)nc3)c3ccc(F)c(C)c3)CCS2(=O)=O)n1` [compound 85]: the 50% inhibitory concentration (IC50) lay in the range of 1 to 50 nM.
For `Cc1cc(C(F)(F)F)cc(N2[C@H](C(=O)N(CC#Cc3cccc(N4CCOCC4)n3)c3ccc(F)c(C)c3)CCS2(=O)=O)n1` [compound 86], the IC50 fell in the range of 1 to 50 nM.
Regarding `Cc1cc(C(F)(F)F)cc(N2[C@H](C(=O)N(CC#Cc3cccc(=O)[nH]3)c3ccc(F)c(C)c3)CCS2(=O)=O)n1` [compound 87], the IC50 lay within 51 to 100 nM.
For the molecule `Cc1cc(C(F)(F)F)cc(N2[C@H](C(=O)N(CC#Cc3cccc(OC(C)C)n3)c3ccc(F)c(C)c3)CCS2(=O)=O)n1` [compound 88], the IC50 was above 101 nM.
Turning to `Cc1cc(C(F)(F)F)cc(N2[C@H](C(=O)N(CC#Cc3cccc(OC(F)F)n3)c3ccc(F)c(C)c3)CCS2(=O)=O)n1` [compound 89], the IC50 fell in the range of 51 to 100 nM.
Take `Cc1cc(C(F)(F)F)cc(N2[C@H](C(=O)N(CC#Cc3cc(C)c(F)c(C)n3)c3ccc(F)c(C)c3)CCS2(=O)=O)n1` [compound 90]: the IC50 lay within 51 to 100 nM.
For the molecule `Cc1cc(C(F)(F)F)cc(N2[C@H](C(=O)N(CC#Cc3cc(C)c(N)c(C)n3)c3ccc(F)c(C)c3)CCS2(=O)=O)n1` [compound 91], the IC50 was 1 to 50 nM.
With `Cc1cc(C(F)(F)F)cc(N2[C@H](C(=O)N(CC#Cc3cccc(=O)n3C)c3ccc(F)c(C)c3)CCS2(=O)=O)n1` [compound 92], the IC50 lay within 1 to 50 nM.
Consider `Cc1cc(C(F)(F)F)cc(N2[C@H](C(=O)N(CC#Cc3ccc(F)cn3)c3ccc(F)c(C)c3)CCS2(=O)=O)n1` [compound 93], for which the half-inhibitory concentration (IC50) lay in the range of 1 to 50 nM.
`Cc1cc(C(F)(F)F)cc(N2[C@H](C(=O)N(CC#Cc3ccc(F)c(C(C)C)n3)c3ccc(F)c(C)c3)CCS2(=O)=O)n1` [compound 94]: the IC50 lay in the range of 51 to 100 nM.
As to `Cc1cc(C(F)(F)F)cc(N2[C@H](C(=O)N(CC#Cc3ccc(C(N)=O)nc3)c3ccc(F)c(C)c3)CCS2(=O)=O)n1` [compound 95], the half-inhibitory concentration (IC50) was 1 to 50 nM.
As for `Cc1cc(C(F)(F)F)cc(N2[C@H](C(=O)N(CC#Cc3cnc(C(N)=O)c(F)c3)c3ccc(F)c(C)c3)CCS2(=O)=O)n1` [compound 96], the figure is 1 to 50 nM.
